Laboratory results: patent publication US20250235520A1, “METHODS FOR REVERSING A SUPPRESSED IMMUNE STATE TO INCREASE SURVIVAL IN A SUBJECT” (priority 2022, published 2025)

What was measured:
[1] = tested on: breast cancer patients with tumors expressing HER2 (HER2 3+); assay: Phase IIb trial (NCT00524277): disease free survival / recurrence; assay type: in vivo, human; conditions: HER2 3+ patients who completed the primary immunization series after trastuzumab; 5 years of follow-up
[2] = tested on: breast cancer patients with tumors expressing any degree of HER2; assay: Phase IIb trial: injection site reactions (ISRs), orthogonal mean of largest perpendicular diameters; assay type: in vivo, human
Description: Background: Delayed type hypersensitivity (DTH) skin tests in the randomized, active-controlled, single-blinded, multicenter Phase IIb trial investigating GLSI-100 (GP2+GM-CSF) administered in the adjuvant setting to node-positive and high-risk node-negative breast cancer patients with tumors expressing any degree of HER2 (immuno-histochemistry [IHC] 1-3+) (NCT00524277) were analyzed. The trial enrolled HLA-A*02 patients randomized to receive GLSI-100 versus GM-CSF alone. The trial's primary objective was to determine if treatment with GLSI-100, a HER2-derived peptide, reduces recurrence rates.
Methods: Patients were randomized and received GLSI-100 (500 micrograms (mcg) GP2 and 125 mcg GM-CSF) or control (GM-CSF) via 6 intradermal injections every 3-4 weeks for the first 6 months and 4 booster injections every 6 months. The magnitude of injection site reactions, which occurred in almost all patients, were assessed for the 10 doses administered by measuring the largest perpendicular diameters and the resulting orthogonal mean.

Substance	Kaplan-Meier estimated 5-year disease free survival (DFS) rate [1]	median orthogonal mean induration ([2]; after a single dose)	patients with injection site reactions ([2]; all treated patients)	difference in reactions, HER2 3+ control patients (Herceptin treated) smaller than HER2 1-2+ control patients ([2]; average over all 10 doses)	increase of injection site reactions by adding GP2 treatment ([2]; trastuzumab treated HER2 3+ patients vs GM-CSF control, average over all 10 doses)
GM-CSF: granulocyte macrophage colony-stimulating factor, adjuvant; control arm (called placebo) of the active-controlled trial	89.4%	7.8 mm	~100%	43.1 mm	–
Ile Ile Ser Ala Val Val Gly Ile Leu (IISAVVGIL) [GP2, 9 amino acid transmembrane peptide of the HER2/neu protein]	–	–	–	–	39.2 mm
